Data set [1] relates to Mus musculus. Description: Toxicity in mouse assessed as increase in bleeding time at 30 mg/kg, po. The settings on record: in vivo. The arrangement: dose 30 mg/kg, route oral. In kind it is organism-based.
Data set [2] relates to Mus musculus. Description: Antithrombotic activity in mouse assessed as protection against collagen and adrenaline-induced hind limb paralysis at 30 mg/kg, po for 60 mins. In kind it is functional, Hindlimb.

For `Cc1ccc(S(=O)(=O)N2C[C@H](Cc3ccc(OCc4ccccc4)cc3)N(S(=O)(=O)c3ccc(C)cc3)Cc3ccccc32)cc1`, the Activity stood at 4% in the data set on Mus musculus [1] and 20% in the data set on Mus musculus [2].

`Cc1ccc(S(=O)(=O)N2CCc3ccccc3OC[C@@H]2C)cc1`: the Activity entry is given as “Non-toxic” in the data set with Mus musculus [1] and 40% in the data set on Mus musculus [2].

In the case of `Cc1ccc(S(=O)(=O)N2CCc3ccccc3OC[C@@H]2Cc2ccc(O)cc2)cc1`, the Activity entry with Mus musculus [1] is “Non-toxic”; with Mus musculus [2], 40%.

With `COc1ccc2c(c1)CN(S(=O)(=O)c1ccc(C)cc1)[C@@H](CC(C)C)CO2`, the figures for the Activity in the data set with Mus musculus [1] and in the data set on Mus musculus [2] were 6% and 30%, respectively.

Regarding `Cc1ccc(S(=O)(=O)N2C[C@H](Cc3ccccc3)N(S(=O)(=O)c3ccc(C)cc3)CCc3ccccc32)cc1`, the figures for the Activity in the data set with Mus musculus [1] and in the data set with Mus musculus [2] were 22% and 20%, respectively.

Regarding `Cc1ccc(S(=O)(=O)N2Cc3ccccc3OC[C@@H]2CC(C)C)cc1`, the Activity came to 60% in the data set with Mus musculus [1] and 10% in the data set with Mus musculus [2].

Take `COc1cccc2c1OC[C@H](Cc1ccc(O)cc1)N(S(=O)(=O)c1ccc(C)cc1)C2`: the Activity with Mus musculus [1] amounted to 24%; with Mus musculus [2] it was 45%.

For `COc1ccc2c(c1)CN(S(=O)(=O)c1ccc(C)cc1)[C@@H](Cc1c[nH]c3ccccc13)CO2`, the Activity in the data set on Mus musculus [1] turned out to be 12%; with Mus musculus [2], 20%.

With `Cc1ccc(S(=O)(=O)N2C[C@H](Cc3ccc(OCc4ccccc4)cc3)N(S(=O)(=O)c3ccc(C)cc3)CCc3ccccc32)cc1`, the Activity result was “Non-toxic” with Mus musculus [1] and 30% with Mus musculus [2].

Turning to `Cc1ccc(S(=O)(=O)N2Cc3ccccc3OC[C@@H]2C(C)C)cc1`, the Activity stood at 22% in the data set with Mus musculus [1] and 20% in the data set with Mus musculus [2].

Turning to `Cc1ccc(S(=O)(=O)N2Cc3ccccc3OC[C@@H]2Cc2ccc(O)cc2)cc1`, the Activity result is recorded as “Non-toxic” with Mus musculus [1] and 0% in the data set on Mus musculus [2].

For `Cc1ccc(S(=O)(=O)N2Cc3ccccc3OC[C@@H]2Cc2c[nH]c3ccccc23)cc1`, the values for the Activity in the data set with Mus musculus [1] and in the data set with Mus musculus [2] were 33% and 40%, respectively.

Take `Cc1ccc(S(=O)(=O)N2Cc3ccccc3OC[C@@H]2Cc2ccccc2)cc1`: the results for the Activity result in the data set on Mus musculus [1] and in the data set with Mus musculus [2] were “Non-toxic” and 20%, respectively.

As to `Cc1ccc(S(=O)(=O)N2C[C@H](Cc3ccccc3)N(S(=O)(=O)c3ccc(C)cc3)Cc3ccccc32)cc1`, the Activity in the data set with Mus musculus [1] is on record as 13%; in the data set with Mus musculus [2], 20%.

Consider `Cc1ccc(S(=O)(=O)N2Cc3ccccc3SC[C@@H]2Cc2ccc(OCc3ccccc3)cc2)cc1`, for which the Activity with Mus musculus [1] is 28%; in the data set on Mus musculus [2] it was 10%.

Regarding `Cc1ccc(S(=O)(=O)N2Cc3ccccc3OC[C@@H]2C)cc1`, the Activity in the data set on Mus musculus [1] is 25%; in the data set with Mus musculus [2], 20%.

On to `CC(=O)Oc1ccccc1C(=O)O` [ASPIRIN], for which the results for the Activity in the data set on Mus musculus [1] and in the data set on Mus musculus [2] were 100% and 37%, respectively.

The values above are taken from ChEMBL document CHEMBL1153152, “Amino acid based enantiomerically pure 3-substituted benzofused heterocycles: A new class of antithrombotic agents” (Bioorg Med Chem Lett, 2010).
